In patent US12180226B2, “Spirotricycle RIPK1 inhibitors and methods of uses thereof” (Merck Sharp & Dohme LLC, priority 2021, dated 2024):
Counter-ions that a name gives are not always drawn.

The compounds below were run against RIPK1 (recombinant GST-RIPK1 kinase domain, residues 1-327) (Homo sapiens (Human), UniProt Q13546) (assay: RIPK1-ADP-Glo Enzymatic Assay). Conditions: ADP-Glo; 25 nM GST-RIPK1, 300 μM ATP; assay lower limit ~25 nM; read-out: RIPK1 V0 Ec50.
Assay type: biochemical
Protocol: RIPK1-ADP-Glo Enzymatic Assay
The enzymatic activity of RIPK1 is measured using an assay derived from ADP-Glo kit (TMPromega), which provides a luminescent-based ADP detection system. Specifically, the ADP generated by RIPK1 kinase is proportionally detected as luminescent signals in a homogenous fashion. In this context, the assessment of the inhibitory effect of small molecules (EC50) is measured by the effectiveness of the compounds to inhibit the ATP to ADP conversion by RIPK1.
In this assay, the potency (EC50) of each compound was determined from a ten-point (1:3 serial dilution; top compound concentration of 100000 nM) titration curve using the following outlined procedure. The assay bottom or lower limit of confidence is ˜25 nM. To each well of a white ProxiPlus 384 well-plate, 30 nL of compound (1% DMSO in final assay volume of 3 μL) was dispensed, followed by the addition of 2 μL of 1×assay buffer (25 mM Hepes 7.3, 20 mM MgCl2, 50 mM NaCl, 1 mM DTT, 0.005% Tween20, and 0.02% BSA) containing 37.5 nM of GST-RIPK1 (recombinant GST-RIPK1 kinase domain (residues 1-327) enzyme produced from baculovirus-transfected Sf21 cells: MW=62 kDa). Plates were placed in an ambient temperature humidified chamber for a 30-minute pre-incubation with compound. Subsequently, each reaction was initiated by the addition of 1 μL 1×assay buffer containing 900 μM ATP and […] dephosphorylated-MBP substrate. The final reaction in each well of 3 μL consists of 25 nM of GST-RIPK1, 300 μM ATP, and 3 μM dephosphorylated-MBP. Kinase reactions were allowed to proceed for 150 minutes prior to adding ADP-Glo reagents per Promega's outlined kit protocol. Dose-response curves were generated by plotting percent effect (% product conversion; Y-axis) vs. Log10 compound concentrations (X-axis). EC50 values were calculated using a non-linear regression, four-parameters sigmoidal dose-response model.

RIPK1 (recombinant GST-RIPK1 kinase domain, residues 1-327), sequence (Q13546 1-327): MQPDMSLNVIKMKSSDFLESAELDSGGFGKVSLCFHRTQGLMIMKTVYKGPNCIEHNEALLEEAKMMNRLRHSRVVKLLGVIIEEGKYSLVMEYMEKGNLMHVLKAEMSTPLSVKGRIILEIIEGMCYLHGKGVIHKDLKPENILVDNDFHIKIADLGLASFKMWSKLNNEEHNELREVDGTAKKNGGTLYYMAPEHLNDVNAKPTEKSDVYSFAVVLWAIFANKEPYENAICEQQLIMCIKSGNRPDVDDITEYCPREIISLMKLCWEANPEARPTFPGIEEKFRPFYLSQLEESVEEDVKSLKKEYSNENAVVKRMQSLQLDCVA

Row | Compound | EC50 [nM]
1 | COc1cc(N2CCC3(CC2)O[C@@H]2CC[C@@H](c4cccc(F)c4)N2C3=O)ncn1 [Example 4.51, (5′S,7a′R)-5′-(3-fluorophenyl)-1-(6-methoxypyrimidin-4-yl)tetrahydro-3′H-spiro[piperidine-4,2′-pyrrolo[2,1-b] [1,3]oxazol]-3′-one] | 41.2
2 | O=C(c1ccco1)N1CCC2(CC1)O[C@@H]1CC[C@@H](c3cc(F)cc(F)c3)N1C2=O [Example 5.50, (5′S,7a′R)-5′-(3,5-difluoro-phenyl)-1-(furan-2-carbon-yl)tetrahydro-3′H-spiro [piperidine-4,2′-pyrrolo-[2,1-b]oxazol]-3′-one] | < 25
3 | O=C(c1ccc(F)cc1F)N1CCC2(CC1)O[C@@H]1CC[C@@H](c3cc(F)cc(F)c3)N1C2=O [Example 5.5, (5′S,7a′R)-1-(2,4-difluoro-benzene-1-carbonyl)5′-(3,5-difluorophenyl)tetra-hydro-3′H-spiro[piperi-dine-4,2′-pyrrolo[2,1-b] [1,3]oxazol]-3′-one] | < 25
4 | O=C1CCc2nc(N3CCC4(CC3)O[C@@H]3CC[C@@H](c5ccccc5)N3C4=O)ccc21 [Example 4.196, (5′S,7a′R)-1-(5-oxo-6,7-dihydro-5H-cyclopenta[b]pyridin-2-yl)-5′-phenyltetrahydro-3′H-spiro[piperidine-4,2′-pyrrolo[2,1-b] [1,3]oxazol]-3′-one] | 31.7
5 | O=C1N2C(CCC2c2cc(F)cc(F)c2)SC12CCN(c1ccnc3c(F)cnn13)CC2 (stereo not shown) [Example 4.110, 5′-(3,5-difluorophenyl)-1-(3-fluoropyrazolo[1,5-a]pyrimidin-7-yl)tetrahydro-3′H-spiro[piperidine-4,2′-pyrrolo[2,1-b]thiazol]-3′-one] | < 25
6 | COc1ccc2oc(N3CCC4(CC3)O[C@@H]3CC[C@@H](c5ccccc5)N3C4=O)nc2c1 [Example 4.160, (5′S,7a′R)-1-(5-methoxy-1,3-benzoxazol-2-yl)-5′-phenyltetrahydro-3′H-spiro[piperidine-4,2′-pyrrolo[2,1-b] [1,3]oxazol]-3′-one] | 76.8
7 | O=C1N2[C@@H](CC[C@H]2c2ccccc2)OC12CCN(c1ncnn3c(F)cnc13)CC2 [Example 4.226, (5′S,7a′R)-1-(7-fluoroimidazo[2,1-f] [1,2,4]triazin-4-yl)-5′-phenyltetrahydro-3′H-spiro[piperidine-4,2′-pyrrolo[2,1-b] [1,3]oxazol]-3′-one] | < 25
8 | N#Cc1ccc(C(=O)N2CCC3(CC2)O[C@@H]2CC[C@@H](c4cc(F)cc(F)c4)N2C3=O)c(Cl)c1 [Example 5.22, 3-chloro-4-((5′S,7a′R)-5′-(3,5-difluorophenyl)-3′-oxotetrahydro-3′H-spiro [piperidine-4,2′-pyrrolo-[2,1-b]oxazole]-1-carbon-yl)benzonitrile] | 392
9 | O=C(c1cnsc1)N1CCC2(CC1)O[C@@H]1CC[C@@H](c3cc(F)cc(F)c3)N1C2=O [Example 5.51, (5′S,7a′R)-5′-(3,5-difluoro-phenyl)-1-(isothiazole-4-carbonyl)tetrahydro-3′H-spiro[piperidine-4,2′-pyrrolo[2,1-b]oxazol]-3′-one] | 48.3

Results, then the compound that gave them:

Row | EC50 [nM] | Compound
10 | 31.8 | CCOc1cccc(C(=O)N2CCC3(CC2)O[C@@H]2CC[C@@H](c4cc(F)cc(F)c4)N2C3=O)n1 [Example 6.83, (5′S,7a′R)-5′-(3,5-difluorophenyl)-1-(6-ethoxypyridine-2-carbonyl)tetrahydro-3′H-spiro[piperidine-4,2′-pyrrolo[2,1-b] [1,3]oxazol]-3′-one]
11 | 211 | O=C(c1cnc2snnc2c1)N1CCC2(CC1)O[C@@H]1CC[C@@H](c3cc(F)cc(F)c3)N1C2=O [Example 6.46, (5′S,7a′R)-5′-(3,5-difluorophenyl)-1-([1,2,3]thiadiazolo-[5,4-b]pyridine-6-carbonyl)tetrahydro-3′H-spiro[piperidine-4,2′-pyrrolo[2,1-b] [1,3]oxazol]-3′-one]
12 | 30 | O=C(c1ccc(F)cn1)N1CCC2(CC1)O[C@@H]1CC[C@@H](c3cc(F)cc(F)c3)N1C2=O [Example 6.14, (5′S,7a′R)-5′-(3,5-difluorophenyl)-1-(5-fluoropyridine-2-carbonyl)tetrahydro-3′H-spiro[piperidine-4,2′-pyrrolo[2,1-b] [1,3]oxazol]-3′-one]
13 | 619 | Cc1nc(C(=O)N2CCC3(CC2)O[C@@H]2CC[C@@H](c4cccc(F)c4)N2C3=O)c(C)o1 [Example 6.126, (5′S,7a′R)-1-(2,5-dimethyl-1,3-oxazole-4-carbonyl)-5′-(3-fluorophenyl)tetra-hydro-3′H-spiro[piperi-dine-4,2′-pyrrolo[2,1-b][1,3]oxazol]-3′-one]
14 | 253 | Cc1cc(N2CCC3(CC2)O[C@@H]2CC[C@@H](c4ccccc4)N2C3=O)cs1 [Example 11.10, (5′S,7a′R)-1-(5-methylthiophen-3-yl)-5′-phenyltetrahydro-3′H-spiro[piperidine-4,2′-pyrrolo[2,1-b][1,3]oxazol]-3′-one]
15 | < 25 | CN(C)c1cccc(C(=O)N2CCC3(CC2)O[C@@H]2CC[C@@H](c4ccccc4)N2C3=O)c1 [Example 6.144, (5′S,7a′R)-1-[3-(dimethylamino)ben-zene-1-carbonyl]-5′-phenyltetrahydro-3′H-spiro[piperidine-4,2′-pyrrolo[2,1-b][1,3]oxazol]-3'-one]
16 | 151 | Cc1nc2sccn2c1C(=O)N1CCC2(CC1)O[C@@H]1CC[C@@H](c3cc(F)cc(F)c3)N1C2=O [Example 6.43, (5′S,7a′R)-5′-(3,5-difluorophenyl)-1-(6-methylimidazo[2,1-b][1,3]thiazole-5-carbonyl)tetrahydro-3′H-spiro[piperidine-4,2′-pyrrolo[2,1-b] [1,3]oxazol]-3′-one]
17 | 47.5 | N#Cc1cccc(C(=O)N2CCC3(CC2)O[C@@H]2CC[C@@H](c4cccc(F)c4)N2C3=O)c1F [Example 6.122, 2-fluoro-3-[(5′S,7a′R)-5′-(3-fluorophenyl)-3′-oxotetrahydro-1H,3′H-spiro[piperi-dine-4,2′-pyrrolo[2,1-b][1,3]oxazole]-1-carbonyl]benzonitrile]
18 | < 25 | Cc1ccc([C@@H]2CC[C@H]3OC4(CCN(C(=O)c5ccccc5)CC4)C(=O)N32)cc1F [Example 17.15, (5′S,7a′R)-1-(benzenecarbonyl)-5′-(3-fluoro-4-methylphenyl)tetrahydro-3′H-spiro[piperidine-4,2′-pyrrolo[2,1-b][1,3]oxazol]-3′-one]
19 | 528 | Cc1ncccc1C(=O)N1CCC2(CC1)O[C@@H]1CC[C@@H](c3cc(F)cc(F)c3)N1C2=O [Example 6.52, (5′S,7a′R)-5′-(3,5-difluorophenyl)-1-(2-methylpyridine-3-carbonyl)tetrahydro-3′H-spiro[piperidine-4,2′-pyrrolo[2,1-b] [1,3]oxazol]-3′-one]
20 | 71.7 | Cc1cc(C)cc(C(=O)N2CCC3(CC2)O[C@@H]2CC[C@@H](c4cccc(F)c4)N2C3=O)c1 [Example 6.132, (5′S,7a′R)-1-(3,5-dimethylbenzene-1-carbonyl)-5′-(3-fluoro-phenyl)tetrahydro-3′H-spiro[piperidine-4,2′-pyrrolo[2,1-b][1,3]oxazol]-3′-one]
21 | 81.7 | O=C1N2[C@@H](CC[C@H]2c2ccccc2)OC12CCN(c1ccnc(C3CC3)n1)CC2 [Example 11.15, (5′S,7a′R)-1-(2-cyclopropylpyrimidin-4-yl)-5′-phenyltetrahydro-3′H-spiro[piperidine-4,2′-pyrrolo[2,1-b][1,3]oxazol]-3′-one]
22 | 42.7 | Cc1ocnc1C(=O)N1CCC2(CC1)O[C@@H]1CC[C@@H](c3cccc(F)c3)N1C2=O [Example 6.128, (5′S,7a′R)-5′-(3-fluorophenyl)-1-(5-methyl-1,3-oxazole-4-carbonyl)tetrahydro-3′H-spiro[piperidine-4,2′-pyrrolo[2,1-b] [1,3]oxazol]-3′-one]
23 | 349 | N#Cc1ccc(C(=O)N2CCC3(CC2)O[C@@H]2CC[C@@H](c4ccccc4)N2C3=O)cc1 [Example 6.151, 4-[(5′S,7a′R)-3′-oxo-5′-phenyltetrahydro-1H,3′H-spiro[piperi-dine-4,2′-pyrrolo[2,1-b][1,3]oxazole]-1-carbonyl]benzonitrile]
24 | 43.8 | O=C(c1ccn2ncnc2n1)N1CCC2(CC1)O[C@@H]1CC[C@@H](c3cc(F)cc(F)c3)N1C2=O [Example 6.87, (5′S,7a′R)-5′-(3,5-difluorophenyl)-1-([1,2,4]triazolo[1,5-a]pyrimidine-5-carbonyl)tetrahydro-3′H-spiro[piperidine-4,2′-pyrrolo[2,1-b] [1,3]oxazol]-3′-one]
25 | < 25 | O=C1N2[C@@H](CC[C@H]2c2cc(F)cc(F)c2)OC12CCN(c1ccnn3ccnc13)CC2 [Example 13.3, (5′S,7a′R)-5′-(3,5-difluorophenyl)-1-(imidazo[1,2-b]pyridazin-8-yl)tetrahydro-3′H-spiro[piperidine-4,2′-pyrrolo[2,1-b]oxazol]-3′-one, TFA salt]
